Patent publication US4983740A, “Process for 1,4-dihydropyridine compounds” (Adir et Compagnie, priority 1986, dated 1991)

Columns and labels:
[1] = system: conscious spontaneous hypertensive rats (SHR); assay: Long-term studies in conscious spontaneous hypertensive rats (oral, single daily dose, systolic arterial pressure); type: in vivo, rat (SHR); details: 1 mg/kg/d; for Systolic arterial pressure Δ(mm Hg) 24 h after the last administration of the products, D1: day 1; for Systolic arterial pressure Δ(mm Hg) 24 h after the last administration of the products, D2: day 2; for Systolic arterial pressure Δ(mm Hg) 24 h after the last administration of the products, D4: day 4; for Systolic arterial pressure Δ(mm Hg) 24 h after the last administration of the products, D7: day 7
Protocol: Long-term Studies in Conscious Spontaneous Hypertensive rats (SHR) Male rats weighing 280 to 300 g, aged 16 weeks, are used in this study. The systolic arterial pressure is determined with a Rhema multichannel 8,000® apparatus, according to the indirect method, at the tail of the animal. The compounds to be tested are administered orally, in a single daily dose. Determinations of arterial pressure are carried out each day just before the treatment. Amlodipine was also studied under the same conditions.

rat aorta = assay: In vitro activity in rat aorta stimulated by potassium ions; type: cell-based, rat (male Wistar); details: 1 h; rat aorta rings, KCl 80 mM stimulation, cumulative doses at 60 minutes intervals
Protocol: Determination of the Vitro Activity in Rat Aorta Stimulated by Potassium Ions
This trial was carried out using isolated organs removed from male Wistar rats weighing 300 to 400 g, kept under a water diet 18 hours before sacrificing.
After quickly sacrificing the animal, the aorta (at the level of the arch of the aorta) is removed and dissected into 2 mm-long rings; the endothelium is removed mechanically. After an equilibration period of 1 hour in a physiological solution consisting of (mM): NaCl 112, KCl 5, KH2 PO4 1, MgSO4 1.2, CaCl2 2.5, NaHCO3 25 and glucose 11.5, the preparations are stimulated with a potassium-rich solution. The latter consists of (mM):NaCl 37, KCl 80, KH2 PO4 1, MgSO4 1.2, CaCl2 2.5, NaHCO3 25 and glucose 11.5. This solution has a pH of 7.4 at 37° C.
After 15 minutes of stabilization, the compounds to be tested are then added (sample volume 0.2 ml) at cumulative doses at 60 minutes intervals. From the relaxation values obtained, it is possible to construct a doseresponse curve, leading to the calculation of an IC50 value (expressed in M).

[2] = system: conscious spontaneous hypertensive rats (SHR); assay: Short-term studies in conscious spontaneous hypertensive rats (oral, systolic arterial pressure); type: in vivo, rat (SHR)
Protocol: Short-term Studies in Conscious Spontaneous Hypertensive Rats (SHR)
Male spontaneous hypertensive rats weighing 270 to 320 g, aged 16 to 24 weeks, are anesthetized with ether. A polyethylene catheter is introduced into the femoral artery and moved forward to the level of the tail. The pressure in the femoral artery is recorded with a Statham® P23 sensor, on a Gould® 2400 recorder. The animals are treated at least one hour after the operation. The compounds are administered orally, in the dissolved form. The doses administered are expressed in mg/kg of base. The compounds of the invention were compared with amlodipine and with another 1,4-dihydropyridine derivative reference compound, nifedipine.

[3] = system: conscious dogs with renal hypertension; assay: Study in conscious dogs with renal hypertension (oral, mean arterial pressure); type: in vivo, dog (Mongol); details: digestive route
From the text: Study in Conscious Dogs with Renal Hypertension
Mongol dogs weighing 20 to 25 kg are used. A Silastic® catheter, inserted under anesthesia at the level of the abdominal aorta, left in position permanently, enables the arterial pressure to be determined subsequently in the conscious animal.
Arterial hypertension is induced by a second operation, under anesthesia, consisting in constricting the left renal artery with a clip, decreasing the flow rate therein by approximately 70%, the left kidney is also covered with a latex capsule in order to restrict circulatory compensations; the contralateral kidney is left in position.
The systolic, diastolic and mean arterial pressures are determined with a Statham® P23 pressure sensor attached to the Silastic® catheter and connected to a Gould® "pressure-processor". The compounds are tested in animals which became hypertensive in the conscious state at least one week after the second operation. The arterial pressure is continuously recorded up to 7 hours after the treatment and then at 24 hours.
The compounds to be tested are administered by the digestive route through gastric tubing, in the form of a solution which may be aqueous, aqueous/alcoholic and the like, depending on the solubility of the products.
The doses administered are expressed in mg base per body weight kg.

[4] = system: unanesthetized spontaneously hypertensive rats (SHR); assay: Study in unanesthetized spontaneously hypertensive rats (intravenous, systolic blood pressure); type: in vivo, rat (SHR); details: for Systolic blood pressure changes (ΔmmHg) after treatment, 1H 30 min / Systolic blood pressure changes (ΔmmHg) after treatment, 3H / Systolic blood pressure changes (ΔmmHg) after treatment, 6H: 0.1 mg/kg, intravenous
Protocol: Study in Unanesthetized Spontaneously Hypertensive Rats (SHR)
SHR male rats weighing 280 to 350 g and aged from 18 to 24 weeks are anaesthetized with imalgene® (150 mg/kg i.p.). Two polyethylene catheters are introduced, one into the abdominal aorta for the recording of hemodynamic parameters and the other into the jugular vein for the administration of the products. The catheters are taken through to neck level. The animals are used at least 48 hours after surgical intervention.
The systolic and diastolic abdominal bood pressures are recorded by means of a Statham P23XL transducer on a Gould ES 1000 recorder. The products are administered intravenously in a volume of 0.5 ml/kg. The doses administered of the test compounds are expressed in mg/kg of base. The blood pressure is recorded in continuous fashion up to 6 hours after the treatment.
The changes in systolic blood pressure after treatment are recorded in Table VIII.

[5] = biological target: T1, dihydropyridine site associated with the calcium slow channel (Rattus norvegicus, UniProt Q02485); assay: Affinity for the dihydropyridine binding site, displacement of [3H]-PN 200-110; design: species or system rat (Wistar); details: for Ki: displacement of [3H]-PN 200-110, microsomal membranes of rat skeletal muscle
T1 construct: microsomal membrane preparations prepared from skeletal muscle of rat (Wistar) hind limbs; from tissue; host or cells: skeletal muscle of rat (Wistar) hind limbs, microsomal fraction
Protocol: Affinity for the Dihydropyridine Binding Site
This study was carried out on microsomal membrane preparations prepared from skeletal muscle of rat (Wistar) hind limbs.
The rats are killed by decapitation. The skeletal muscles are removed and washed in buffer I (20 mM MOPS/KOH pH 7.4, 0.3M sucrose, 1 mM EDTA, 0.1 mM iodoacetamide, 1 μM pepstatin A, 1 mg/l leupeptin and 0.1 μM PMSF). The muscles are then mechanically fragmented, taken up in 4 volumes of buffer I per gramme of tissue and homogenized.
The homogenate is then centrifuged for 10 minutes at 3,200 g, the pellets are removed and the supernatants are then centrifuged for 20 minutes at 15,000 g, and the supernatants are stirred for 15 minutes at 4° C. in buffer I containing 0.6M final KCl and then centrifgued for 45 minutes at 70,000 g.
The pellets are taken up in buffer I and homogenized in a Potter. The homogenates are centrifuged at 100,000 g for 45 minutes and the pellets thereby obtained correspond to the microsomal fraction used for the studies of binding and displacement.
The activity of the product is assessed by the displacement of [^3 H]-PN 200-110, bound specifically to its receptor associated with the calcium slow channel, by increasing concentrations of the test products. The value obtained (K0.5) for each of the products, which represents the concentration of the product displacing 50% of the [^3 H]-PN 200-110, permits calculation of a true dissociation constant (KI): [formula] where [L*] is the concentration of free [^3 H]-PN 200-110 and Kd the dissociation constant at equilibrium of the [^3 H]-PN 200-110 complex, determined by direct binding.
The KI values of the two products are recorded in Table VI

[6] = biological target: isolated rabbit mesenteric artery (Oryctolagus cuniculus, UniProt P15381); assay: Study on isolated rabbit mesenteric artery contracted with calcium; type: cell-based, rabbit (New Zealand); details: compound of example 50 versus its racemate
Protocol: Study on Isolated Rabbit Mesenteric Artery Contracted with Calcium
This test is performed on organs removed from male New Zealand rabbits weighing 2.5 to 3 kg, subjected to a water regimen for 18 hours before sacrifice.
After the animal is rapidly sacrificed, the mesenteric artery is removed and dissected into rings 2 mm long; the endothelium is removed mechanically.
After a stabilization period of 90 minutes, the preparations are subjected to a depolarizing medium (35 mM KCl) without calcium (0.1 mM EGTA) for 15 minutes.
A control series is prepared by adding cumulative doses of calcium to the bath every 6 minutes until a maximum of effect is produced. The preparations are then rinsed for a period of 15 minutes and the product is incubated for one hour before renewal of the calcium series.
A single concentration of the product is tested per organ.
The responses obtained in the presence of product are expressed as a percentage of the maximal value of the control series.
The pD'2 value is calculated according to the method of Van Rossum (1963).

T1 sequence (Q02485 whole entry): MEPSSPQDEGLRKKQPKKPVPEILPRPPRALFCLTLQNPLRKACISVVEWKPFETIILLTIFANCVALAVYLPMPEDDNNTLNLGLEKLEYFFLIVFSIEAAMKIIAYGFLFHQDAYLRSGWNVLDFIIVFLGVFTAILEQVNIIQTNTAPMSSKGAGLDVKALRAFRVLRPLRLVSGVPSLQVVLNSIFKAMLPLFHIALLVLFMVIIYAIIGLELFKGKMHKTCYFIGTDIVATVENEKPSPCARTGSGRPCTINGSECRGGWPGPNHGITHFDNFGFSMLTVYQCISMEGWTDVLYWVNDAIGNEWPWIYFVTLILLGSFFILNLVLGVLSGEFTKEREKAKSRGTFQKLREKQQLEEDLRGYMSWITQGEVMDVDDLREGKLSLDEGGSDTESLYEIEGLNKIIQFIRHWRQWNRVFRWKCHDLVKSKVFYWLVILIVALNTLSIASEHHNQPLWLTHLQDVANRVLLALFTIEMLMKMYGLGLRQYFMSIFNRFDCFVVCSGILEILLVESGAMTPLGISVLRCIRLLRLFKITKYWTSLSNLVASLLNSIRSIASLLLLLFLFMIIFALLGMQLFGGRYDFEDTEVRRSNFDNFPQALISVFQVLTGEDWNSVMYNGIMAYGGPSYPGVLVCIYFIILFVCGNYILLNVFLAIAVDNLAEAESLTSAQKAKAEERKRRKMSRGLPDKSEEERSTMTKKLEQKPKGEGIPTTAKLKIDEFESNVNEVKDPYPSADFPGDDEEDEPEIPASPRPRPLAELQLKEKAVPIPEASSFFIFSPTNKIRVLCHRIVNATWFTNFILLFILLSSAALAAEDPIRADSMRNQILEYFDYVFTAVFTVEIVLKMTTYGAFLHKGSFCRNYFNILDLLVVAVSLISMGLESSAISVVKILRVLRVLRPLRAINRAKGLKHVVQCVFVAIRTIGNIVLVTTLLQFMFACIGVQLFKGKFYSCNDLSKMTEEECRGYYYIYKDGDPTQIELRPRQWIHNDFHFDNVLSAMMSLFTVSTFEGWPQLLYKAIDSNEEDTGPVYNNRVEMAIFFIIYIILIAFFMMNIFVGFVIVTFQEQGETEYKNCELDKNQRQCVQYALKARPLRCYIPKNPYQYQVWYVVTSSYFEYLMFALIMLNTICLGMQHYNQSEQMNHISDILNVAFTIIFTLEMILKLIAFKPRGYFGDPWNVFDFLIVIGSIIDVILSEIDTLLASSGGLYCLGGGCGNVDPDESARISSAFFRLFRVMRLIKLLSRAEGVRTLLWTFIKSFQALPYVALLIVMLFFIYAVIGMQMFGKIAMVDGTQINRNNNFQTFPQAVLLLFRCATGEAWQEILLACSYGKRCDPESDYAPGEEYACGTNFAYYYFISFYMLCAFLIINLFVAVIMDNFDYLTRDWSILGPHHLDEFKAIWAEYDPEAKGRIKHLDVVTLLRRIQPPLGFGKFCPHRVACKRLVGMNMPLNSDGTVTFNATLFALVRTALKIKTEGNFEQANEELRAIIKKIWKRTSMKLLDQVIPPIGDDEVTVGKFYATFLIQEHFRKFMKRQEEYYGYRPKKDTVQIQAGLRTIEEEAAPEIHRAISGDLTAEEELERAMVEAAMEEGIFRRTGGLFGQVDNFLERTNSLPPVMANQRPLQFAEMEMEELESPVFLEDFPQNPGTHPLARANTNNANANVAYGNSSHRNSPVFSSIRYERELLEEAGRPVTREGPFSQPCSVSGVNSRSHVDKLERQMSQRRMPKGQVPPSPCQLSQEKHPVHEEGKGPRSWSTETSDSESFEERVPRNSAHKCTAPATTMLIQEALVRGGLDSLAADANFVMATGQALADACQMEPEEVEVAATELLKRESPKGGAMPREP
T1 sequence (P54290 25-945 partner limits assumed): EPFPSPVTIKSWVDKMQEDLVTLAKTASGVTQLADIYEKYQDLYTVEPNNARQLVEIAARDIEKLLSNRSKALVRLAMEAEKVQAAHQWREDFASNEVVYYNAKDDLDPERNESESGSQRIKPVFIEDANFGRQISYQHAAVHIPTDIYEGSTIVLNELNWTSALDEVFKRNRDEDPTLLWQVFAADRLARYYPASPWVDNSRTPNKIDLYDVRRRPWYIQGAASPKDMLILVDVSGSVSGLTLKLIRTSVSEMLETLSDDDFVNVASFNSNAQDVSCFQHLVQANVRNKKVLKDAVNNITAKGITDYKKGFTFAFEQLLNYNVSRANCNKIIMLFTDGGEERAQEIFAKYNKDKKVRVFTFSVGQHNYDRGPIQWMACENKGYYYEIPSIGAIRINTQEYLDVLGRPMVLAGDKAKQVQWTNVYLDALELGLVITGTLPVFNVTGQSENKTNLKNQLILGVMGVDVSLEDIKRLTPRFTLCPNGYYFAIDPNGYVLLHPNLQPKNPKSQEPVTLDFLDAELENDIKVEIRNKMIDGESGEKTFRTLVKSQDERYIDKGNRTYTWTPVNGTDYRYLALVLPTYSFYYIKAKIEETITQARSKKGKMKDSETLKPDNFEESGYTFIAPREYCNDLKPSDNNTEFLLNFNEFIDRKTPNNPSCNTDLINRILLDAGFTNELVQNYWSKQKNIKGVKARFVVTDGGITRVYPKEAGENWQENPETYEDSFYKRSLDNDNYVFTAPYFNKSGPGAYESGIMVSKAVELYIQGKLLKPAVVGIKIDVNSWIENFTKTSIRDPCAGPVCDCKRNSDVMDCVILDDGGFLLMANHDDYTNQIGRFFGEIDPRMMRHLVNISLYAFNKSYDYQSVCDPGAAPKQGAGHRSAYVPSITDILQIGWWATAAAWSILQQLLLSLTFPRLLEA
T1 sequence (P54290 946-1091 partner limits assumed): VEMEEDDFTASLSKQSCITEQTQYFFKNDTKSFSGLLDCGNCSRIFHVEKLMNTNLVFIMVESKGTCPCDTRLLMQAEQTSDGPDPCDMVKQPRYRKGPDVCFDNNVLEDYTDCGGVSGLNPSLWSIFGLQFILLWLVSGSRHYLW
T1 sequence (P54283 whole entry partner): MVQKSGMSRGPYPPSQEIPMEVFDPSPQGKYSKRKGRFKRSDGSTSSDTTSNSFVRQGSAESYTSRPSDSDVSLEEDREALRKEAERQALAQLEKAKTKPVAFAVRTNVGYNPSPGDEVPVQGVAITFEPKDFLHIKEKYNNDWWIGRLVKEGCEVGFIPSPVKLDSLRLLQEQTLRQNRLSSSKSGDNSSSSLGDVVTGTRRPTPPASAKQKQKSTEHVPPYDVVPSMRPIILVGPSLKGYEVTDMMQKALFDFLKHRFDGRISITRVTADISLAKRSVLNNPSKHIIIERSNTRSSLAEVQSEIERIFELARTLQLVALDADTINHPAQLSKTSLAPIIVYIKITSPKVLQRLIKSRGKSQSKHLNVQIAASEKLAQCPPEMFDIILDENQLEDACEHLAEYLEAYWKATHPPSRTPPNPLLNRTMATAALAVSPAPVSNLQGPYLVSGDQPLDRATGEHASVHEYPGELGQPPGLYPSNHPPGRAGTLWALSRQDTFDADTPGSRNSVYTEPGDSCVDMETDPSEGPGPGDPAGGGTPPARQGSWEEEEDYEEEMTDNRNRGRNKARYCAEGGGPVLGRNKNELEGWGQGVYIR
T1 sequence (P97707 whole entry partner): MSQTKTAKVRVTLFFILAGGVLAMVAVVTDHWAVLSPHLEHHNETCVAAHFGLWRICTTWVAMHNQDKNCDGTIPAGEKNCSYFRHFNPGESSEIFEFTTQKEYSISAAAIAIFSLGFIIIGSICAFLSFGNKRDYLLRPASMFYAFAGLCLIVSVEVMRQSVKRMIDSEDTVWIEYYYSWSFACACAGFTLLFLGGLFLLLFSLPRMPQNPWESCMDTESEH

With `CCOC(=O)C1=C(COCCOCCN)NC(C)=C(C(=O)OC)C1c1c(F)c(F)c(F)c(F)c1F` (racemic) [EXAMPLE 1, (4R,S)-2-{[2-(2-Aminoethoxy)ethoxy]methyl}-3-ethoxycarbonyl-5-methoxycarbonyl-6-methyl-4-pentafluorophenyl-1,4-dihydropyridine hemifumarate] the “Systolic arterial pressure Δ(mm Hg) 24 h after the last administration of the products, D1” value [1] was -52 mm Hg, the “Systolic arterial pressure Δ(mm Hg) 24 h after the last administration of the products, D2” value [1] was -51 mm Hg and the “Systolic arterial pressure Δ(mm Hg) 24 h after the last administration of the products, D3” value ([1]; day 3) was -49 mm Hg. The “Systolic arterial pressure Δ(mm Hg) 24 h after the last administration of the products, D4” value [1] was -44 mm Hg, the “Systolic arterial pressure Δ(mm Hg) 24 h after the last administration of the products, D7” value [1] was -46 mm Hg and the IC50 (rat aorta) was 25 nM. For the same compound, the “Systolic arterial pressure after treatment, Δ mm Hg, 4 h” value ([2]; 1 mg/kg) was -44 mm Hg, the “Systolic arterial pressure after treatment, Δ mm Hg, 6 h” value ([2]; 1 mg/kg) was -54 mm Hg and the “Systolic arterial pressure after treatment, Δ mm Hg, 24 h” value ([2]; 1 mg/kg) was -47 mm Hg. The “Systolic arterial pressure after treatment, Δ mm Hg, 4 h” value ([2]; 3 mg/kg) was -79 mm Hg, the “Systolic arterial pressure after treatment, Δ mm Hg, 6 h” value ([2]; 3 mg/kg) was -78 mm Hg and the “Systolic arterial pressure after treatment, Δ mm Hg, 24 h” value ([2]; 3 mg/kg) was -71 mm Hg. For the same compound, the “Mean arterial pressure after treatment, Δ mm Hg, 4 h” value ([3]; 0.5 mg/kg) was -21 mm Hg, the “Mean arterial pressure after treatment, Δ mm Hg, 7 h” value ([3]; 0.5 mg/kg) was -22 mm Hg and the “Mean arterial pressure after treatment, Δ mm Hg, 24 h” value ([3]; 0.5 mg/kg) was -15 mm Hg. For the same compound, the “Mean arterial pressure after treatment, Δ mm Hg, 4 h” value ([3]; 1.0 mg/kg) was -45 mm Hg, the “Mean arterial pressure after treatment, Δ mm Hg, 7 h” value ([3]; 1.0 mg/kg) was -47 mm Hg and the “Mean arterial pressure after treatment, Δ mm Hg, 24 h” value ([3]; 1.0 mg/kg) was -46 mm Hg.
For `CCOC(=O)C1=C(COCCOCCN)NC(C)=C(C(=O)OC)C1c1cccc(Cl)c1Cl` (racemic) [EXAMPLE 6, (4R,S)-2-{[2-(2-Aminoethoxy)ethoxy]methyl}-4-(2,3-dichlorophenyl)-3-ethoxycarbonyl-5-methoxycarbonyl-6-methyl-1,4-dihydropyridine], the “Systolic arterial pressure Δ(mm Hg) 24 h after the last administration of the products, D1” value [1] was -22 mm Hg, the “Systolic arterial pressure Δ(mm Hg) 24 h after the last administration of the products, D2” value [1] was -18 mm Hg and the “Systolic arterial pressure Δ(mm Hg) 24 h after the last administration of the products, D4” value [1] was -17 mm Hg. The “Systolic arterial pressure Δ(mm Hg) 24 h after the last administration of the products, D7” value [1] was -31 mm Hg, the IC50 (rat aorta) was 5 nM and the “Systolic arterial pressure after treatment, Δ mm Hg, 4 h” value ([2]; 1 mg/kg) was -14 mm Hg. The “Systolic arterial pressure after treatment, Δ mm Hg, 6 h” value ([2]; 1 mg/kg) was -17 mm Hg, the “Systolic arterial pressure after treatment, Δ mm Hg, 24 h” value ([2]; 1 mg/kg) was -17 mm Hg and the “Systolic arterial pressure after treatment, Δ mm Hg, 4 h” value ([2]; 3 mg/kg) was -52 mm Hg. The “Systolic arterial pressure after treatment, Δ mm Hg, 6 h” value ([2]; 3 mg/kg) was -55 mm Hg, the “Systolic arterial pressure after treatment, Δ mm Hg, 24 h” value ([2]; 3 mg/kg) was -36 mm Hg and the “Systolic blood pressure changes (ΔmmHg) after treatment, 1H 30 min” value [4] was -11 ± 3 mmHg. For the same compound, the “Systolic blood pressure changes (ΔmmHg) after treatment, 3H” value [4] was -5 ± 3 mmHg, the “Systolic blood pressure changes (ΔmmHg) after treatment, 6H” value [4] was -5 ± 2 mmHg and the “Mean arterial pressure after treatment, Δ mm Hg, 4 h” value ([3]; 0.5 mg/kg) was -20 mm Hg. The “Mean arterial pressure after treatment, Δ mm Hg, 7 h” value ([3]; 0.5 mg/kg) was -29 mm Hg, the “Mean arterial pressure after treatment, Δ mm Hg, 24 h” value ([3]; 0.5 mg/kg) was -11 mm Hg and the “Mean arterial pressure after treatment, Δ mm Hg, 4 h” value ([3]; 1.0 mg/kg) was -40 mm Hg. The “Mean arterial pressure after treatment, Δ mm Hg, 7 h” value ([3]; 1.0 mg/kg) was -44 mm Hg, the “Mean arterial pressure after treatment, Δ mm Hg, 24 h” value ([3]; 1.0 mg/kg) was -49 mm Hg and the Ki [5] was 8.2 ± 1.7 nM.
In the case of `CCOC(=O)C1=C(COCCOCCN)NC(C)=C(C(=O)OC)C1c1cccc(Cl)c1Cl` (single isomer, unassigned; (-)) [EXAMPLE 50, (-)-2-{[2-(2-Aminoethoxy)ethoxy]methyl}-4-(2,3-dichlorophenyl)-3-ethoxycarbonyl-5-methoxycarbonyl-6-methyl-1,4-dihydropyridine], the “superiority compared with its racemate in preventing a calcium-induced vascular contraction” value [6] is reported as “more than double”, the “Systolic blood pressure changes (ΔmmHg) after treatment, 1H 30 min” value [4] is reported as -16 ± 2 mmHg and the “Systolic blood pressure changes (ΔmmHg) after treatment, 3H” value [4] is reported as -18 ± 2 mmHg. The “Systolic blood pressure changes (ΔmmHg) after treatment, 6H” value [4] was -21 ± 5 mmHg, the “activity compared with its racemate six hours after treatment” value ([4]; same dose, six hours after treatment, versus racemate) was “approximately 4 times” and the “activity compared with its racemate, in words” value ([4]; versus racemate) was “more potent and sustained even better over a period of time”. For the same compound, the “affinity for the dihydropyridine sites compared with its racemate” value ([5]; compound of example 50 versus its racemate) was 30 times and the Ki [5] was 0.28 ± 0.15 nM.
